# From US9682965B2, “Fumagillol heterocyclic compounds and methods of making and using same” (Zafgen, Inc., priority 2015, dated 2017)
# Structures can show the parent of a compound that is named as a salt.
# Test system: Diet Induced Obese (DIO) C57BL/6 mice
# Assay: 10 day DIO mouse model (body weight, food intake, hematology, blood chemistry)
# Assay type: in vivo
# Conditions: 240 h; DIO mouse, 0.3 mpk sc, once a day for 10 days; read-out: DIO Mouse 10-day weight loss vs vehicle
# Excerpt: The objective of this study design was to investigate the efficacy of disclosed compounds in a 10 day DIO mouse model. Effects on body weight, food intake, hematology and blood chemistry were the primary readouts of this study design. […] Mice were fed Research Diets D12492 (60% Kcal fat, 20% Kcal carbohydrate and 20% protein) and provided water ad libitum. DIO mice were received and housed in the facility for approximately two weeks prior to the start of test article administration. On Day −4 or −3, mice were randomized into study groups based on body weight and body weights were continued to be recorded daily for the duration of the study. Daily food intake was assessed starting on Study Day −2 by weighing of the food with hopper together to avoid loss of food in transfer.
# Compounds were formulated into a 100% DMSO stock (at 9 mg/mL) prior to the start, and further diluted into the target working concentration using the vehicle of 10% DMSO in water. Prior to test article administration, starting on Day −3 a dosing acclimation occured with all animals receiving a subcutaneous injection of vehicle (10% DMSO) only for 3 days. Starting on Day 1, test compounds or vehicle were administered based on individual body weight, subcutaneously, once a day for 10 days. All mice were sacrificed on Day 11, 24 hours following the final dosing on Day 10. After sacrifice, whole blood was collected and analyzed for hematology and blood chemistry parameters.
# Compounds were tested vs. vehicle at various doses (1.0, 0.5, 0.3, 0.1, 0.03 mpk sc (mg per kg animal weight delivered subcutaneously), and the results are shown in Table 2 below.
row,Structure (SMILES),inhibition in vivo at 0.3 mg/kg [%]
1,"CO[C@@H]1[C@H](OC(=O)N2CC(CCN3CC[C@H](O)C3)C2)CC[C@]2(CO2)[C@H]1[C@@]1(C)O[C@@H]1CC=C(C)C [Example 46, (3R,4S,5S,6R)-5-methoxy-4-((2R,3R)-2-methyl-3-(3-methylbut-2-enyl)oxiran-2-yl)-1-oxaspiro[2.5]octan-6-yl 3-(2-((S)-3-hydroxypyrrolidin-1-yl)ethyl)azetidine-1-carboxylate formate]",5.2
2,"CO[C@@H]1[C@H](OC(=O)N2CC(CCN3CCC(F)CC3)C2)CC[C@]2(CO2)[C@H]1[C@@]1(C)O[C@@H]1CC=C(C)C [Example 30, (3R,4S,5S,6R)-5-methoxy-4-((2R,3R)-2-methyl-3-(3-methylbut-2-enyl)oxiran-2-yl)-1-oxaspiro[2.5]octan-6-yl 3-(2-(4-fluoropiperidin-1-yl)ethyl)azetidine-1-carboxylate]",9.1
3,"CO[C@@H]1[C@H](OC(=O)N2CC(CCN3CC(C(=O)N(C)C)C3)C2)CC[C@]2(CO2)[C@H]1[C@@]1(C)O[C@@H]1CC=C(C)C [Example 19, (3R,4S,5S,6R)-5-methoxy-4-((2R,3R)-2-methyl-3-(3-methylbut-2-enyl)oxiran-2-yl)-1-oxaspiro[2.5]octan-6-yl 3-(2-(3-(dimethylcarbamoyl)azetidin-1-yl)ethyl)azetidine-1-carboxylate]",6.7
4,"CO[C@@H]1[C@H](OC(=O)N2CC(CCC3CCN(C)CC3)C2)CC[C@]2(CO2)[C@H]1[C@@]1(C)O[C@@H]1CC=C(C)C [Example 90, (3R,4S,5S,6R)-5-methoxy-4-((2R,3R)-2-methyl-3-(3-methylbut-2-enyl)oxiran-2-yl)-1-oxaspiro[2.5]octan-6-yl 3-(2-(1-methylpiperidin-4-yl)ethyl)azetidine-1-carboxylate formate]",13.5
5,"CCN(CC)CC[C@@H]1CCCN1C(=O)O[C@@H]1CC[C@]2(CO2)[C@@H]([C@@]2(C)O[C@@H]2CC=C(C)C)[C@@H]1OC [Example 51, (S)-((3R,4S,5S,6R)-5-methoxy-4-((2R,3R)-2-methyl-3-(3-methylbut-2-enyl)oxiran-2-yl)-1-oxaspiro[2.5]octan-6-yl) 2-(2-(diethylamino)ethyl)pyrrolidine-1-carboxylate formate]",4.3
6,"CO[C@@H]1[C@H](OC(=O)N2CC(CCN3CCS(=O)(=O)CC3)C2)CC[C@]2(CO2)[C@H]1[C@@]1(C)O[C@@H]1CC=C(C)C [Example 10, (3R,4S,5S,6R)-5-methoxy-4-((2R,3R)-2-methyl-3-(3-methylbut-2-enyl)oxiran-2-yl)-1-oxaspiro[2.5]octan-6-yl 3-(2-thiomorpholinoethyl)azetidine 2,2-dioxide-1-carboxylate]",1.8
7,"CO[C@@H]1[C@H](OC(=O)N2CC(OC(=O)N3CCS(=O)(=O)CC3)C2)CC[C@]2(CO2)[C@H]1[C@@]1(C)O[C@@H]1CC=C(C)C [Example 79, 1-(((3R,4S,5S,6R)-5-methoxy-4-((2R,3R)-2-methyl-3-(3-methylbut-2-enyl)oxiran-2-yl)-1-oxaspiro[2.5]octan-6-yloxy)carbonyl)azetidin-3-yl thiomorpholine 2,2-dioxide-4-carboxylate formate]",0.1
8,"CCN(CC)CC[C@H]1CCCN1C(=O)O[C@@H]1CC[C@]2(CO2)[C@@H]([C@@]2(C)O[C@@H]2CC=C(C)C)[C@@H]1OC [Example 50, (R)-((3R,4S,5S,6R)-5-methoxy-4-((2R,3R)-2-methyl-3-(3-methylbut-2-enyl)oxiran-2-yl)-1-oxaspiro[2.5]octan-6-yl) 2-(2-(diethylamino)ethyl)pyrrolidine-1-carboxylate formate]",2.6
9,"CO[C@@H]1[C@H](OC(=O)N2CC(CCN3C4CCC3CC4)C2)CC[C@]2(CO2)[C@H]1[C@@]1(C)O[C@@H]1CC=C(C)C [Example 32, (3R,4S,5S,6R)-5-methoxy-4-((2R,3R)-2-methyl-3-(3-methylbut-2-enyl)oxiran-2-yl)-1-oxaspiro[2.5]octan-6-yl 3-(2-((1S,4S)-7-azabicyclo[2.2.1]heptan-7-yl)ethyl)azetidine-1-carboxylate]",0.5
